Like-named read-outs stand apart in the source and are kept apart here.
Experiments:
[1] = target: T1, pSTAT3 (Homo sapiens, UniProt P40763); experiment: MSD-pSTAT-PBMC Assay, pSTAT3 (IL-6 stimulated PBMC); type: cell-based; conditions: read-out: pSTAT3 IC50, compound 3 hrs, then 10 ng/mL IL-6 for 10 min, pY705-STAT3
T1 construct: pY705-STAT3 MSD read-out
Text: Cryopreserved Peripheral Blood Mononuclear Cells (PBMC) are from AllCells. Recombinant Human IL-4 and IL-6 are from Peprotech. Mouse monoclonal anti-STAT3 antibody, rabbit monoclonal anti-pY705-STAT3 antibody, rabbit monoclonal Anti-pY641-STAT6 antibody, and lysis buffer are from Cell Signaling Technology (CST). Mouse monoclonal anti-STAT6 antibody is from BioLegend. Assay plates, blocker, and anti-rabbit secondary antibody are from Meso Scale Discovery (MSD).
Cryopreserved PBMCs were thawed out and allowed to recover overnight in IMDM+10% heat-inactivated FBS prior to plating 50,000 (STAT3) or 25,000 (STAT6) cells per well in 96-well U-bottom tissue culture plates. Cells were treated with compound for 3 hrs. then stimulated with 10 ng/mL IL-6 (STAT3) or 1 ng/mL IL-4 (STAT6) for 10 min. Cells were then spun down and washed with ice-cold PBS prior to lysing the cell pellet with 1× lysis buffer (CST) with 1×HALT protease and phosphatase inhibitor cocktail (Thermo). Lysates were transferred to and incubated overnight at 4° C. with shaking in QuickPlex 96-well high bind assay plates (MSD) pre-coated overnight with 30 μL per well of 0.6 μg/mL mouse monoclonal anti-STAT3 antibody (STAT3) or 2 μg/mL mouse monoclonal anti-STAT6 antibody (STAT6) in 1×PBS, and pre-blocked for 1 hour with 3% Blocker-A (MSD). Captured protein in the assay plates were then washed and probed with 25 μL per well of 0.25 μg/ml rabbit monoclonal anti-pY705-STAT3 antibody (STAT3) or 0.18 μg/ml rabbit monoclonal Anti-pY641-STAT6 antibody (STAT6) in 1% Blocker-A for 1 hour at room temperature with shaking, then washed and probed with 25 ul per well of 1 ug/ml Sulfo-TAG Labeled Goat Anti-Rabbit Antibody (MSD) in 1% Blocker-A for 1 hour at room temperature with shaking. Assay plates were then washed and 150 μL of 1× Read Buffer-T (MSD) was added to each well prior to reading on an SQ120 MSD Plate Reader. Assay signal from each sample was subtracted by the signal from unstimulated control wells and normalized to DMSO control wells. IC50 values were calculated using Graph Pad Prism Dose-Response Nonlinear Regression with variable slope. For both pSTAT3 and pSTAT6 A=≤100 nM; B=>100-1000 nM; C=>1000-3000 nM; and D=>3 μM.

[2] = target: T2, pSTAT6 (Homo sapiens, UniProt P42226); experiment: MSD-pSTAT-PBMC Assay, pSTAT6 (IL-4 stimulated PBMC); type: cell-based
T2 construct: pY641-STAT6 MSD read-out
T2 sequence (P42226 1-847): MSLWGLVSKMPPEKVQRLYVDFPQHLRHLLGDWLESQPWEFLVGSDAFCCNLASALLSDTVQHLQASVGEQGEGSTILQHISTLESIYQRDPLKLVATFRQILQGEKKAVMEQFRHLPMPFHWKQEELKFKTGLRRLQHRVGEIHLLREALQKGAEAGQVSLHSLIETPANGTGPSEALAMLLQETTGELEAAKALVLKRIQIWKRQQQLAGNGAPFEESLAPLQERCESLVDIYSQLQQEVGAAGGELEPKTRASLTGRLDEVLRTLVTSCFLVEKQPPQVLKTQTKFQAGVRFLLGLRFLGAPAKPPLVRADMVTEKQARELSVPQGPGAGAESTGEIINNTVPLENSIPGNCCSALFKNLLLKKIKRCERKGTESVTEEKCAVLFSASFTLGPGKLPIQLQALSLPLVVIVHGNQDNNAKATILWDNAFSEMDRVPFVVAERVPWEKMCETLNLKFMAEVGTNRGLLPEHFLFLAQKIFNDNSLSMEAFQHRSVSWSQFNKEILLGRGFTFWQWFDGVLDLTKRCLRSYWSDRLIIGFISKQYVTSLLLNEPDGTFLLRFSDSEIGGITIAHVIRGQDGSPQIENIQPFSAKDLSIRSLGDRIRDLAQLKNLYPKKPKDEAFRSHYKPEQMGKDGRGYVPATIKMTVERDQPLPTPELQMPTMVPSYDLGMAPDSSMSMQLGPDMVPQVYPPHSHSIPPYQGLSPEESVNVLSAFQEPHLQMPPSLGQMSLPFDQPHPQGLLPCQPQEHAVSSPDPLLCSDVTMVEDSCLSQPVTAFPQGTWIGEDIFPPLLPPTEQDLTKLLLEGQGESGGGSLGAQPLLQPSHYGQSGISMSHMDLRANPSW
In short: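 Human PBMC were recovered overnight, treated 3 h with compound, then stimulated for 10 min with 10 ng/mL IL-6 (pSTAT3) or 1 ng/mL IL-4 (pSTAT6). Lysates were read by MSD sandwich immunoassay, with total STAT capture and pY705-STAT3 or pY641-STAT6 detection. Signal minus unstimulated wells was normalized to DMSO, and IC50 came from a variable-slope fit.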

[3] = target: T3, STAT3 (Homo sapiens, UniProt P40763); experiment: STAT3 Fluorescence Polarization (FP) Assay; type: binding; conditions: recombinant STAT3 25 nM; probe 5-FAM-GpYLPQTV-NH2 2 nM; 45 min, room temperature; read-out: STAT3 FP IC50
T3 construct: Recombinant STAT3 protein (STAT3(G127-1722))

[4] = target: T4, STAT6 (Homo sapiens, UniProt P42226); experiment: STAT6 Fluorescence Polarization (FP) Assay; type: binding; conditions: recombinant STAT6(W123-T658) 250 nM; probe 5-FAM-Ap[…]-NH2 2 nM; 45 min, room temperature; read-out: STAT6 FP IC50
T4 construct: Recombinant STAT6 protein (STAT6(W123-T658))
T4 sequence (P42226 123-658): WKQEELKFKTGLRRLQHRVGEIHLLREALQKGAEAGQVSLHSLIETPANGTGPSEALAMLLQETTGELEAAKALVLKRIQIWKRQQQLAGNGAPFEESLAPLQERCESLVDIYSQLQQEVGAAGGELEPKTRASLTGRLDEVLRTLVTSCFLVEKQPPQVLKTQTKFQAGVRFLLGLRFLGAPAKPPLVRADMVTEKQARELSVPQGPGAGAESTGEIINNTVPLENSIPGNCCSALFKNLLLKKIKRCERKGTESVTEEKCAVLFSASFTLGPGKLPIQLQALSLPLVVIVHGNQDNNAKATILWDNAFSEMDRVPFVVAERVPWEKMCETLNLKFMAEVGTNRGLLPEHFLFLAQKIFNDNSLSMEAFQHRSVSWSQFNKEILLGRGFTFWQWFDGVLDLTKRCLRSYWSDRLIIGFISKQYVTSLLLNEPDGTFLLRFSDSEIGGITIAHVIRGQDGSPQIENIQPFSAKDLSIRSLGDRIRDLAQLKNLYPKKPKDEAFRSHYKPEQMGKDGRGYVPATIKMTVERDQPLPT
Protocol: STAT6 Fluorescence Polarization (FP) Assay
An FP assay was developed to determine IC50 values for test substances. Recombinant STAT6 protein (STAT6(W123-T658)) at 250 nM was combined with a fluorescently labeled, phosphotyrosine peptide probe (5-FAM-Ap[…]-NH2) at 2 nM in FP buffer (10 mM HEPES pH 7.4, 50 mM NaCl, 1 mM EDTA, 0.05% Tween 20, 2 mM DTT), 50 μL of STAT6-probe mixture was added to serial diluted compounds in black, 96-well plates (Greiner BioOne 655076) to a final concentration of 1% DMSO. Reaction components were mixed, and FP was measured after 45-minute incubation at room temperature using a Tecan Spark multimode plate reader. FP signal (mP) was plotted against the log concentration of the test substances and IC50 values were calculated by nonlinear regression analysis using GraphPad Prism software. For STAT6 FP assay. A=≤300 nM; B=>300-3000 nM; C=>3-30 μM; and D=>30 μM.

[5] = read-out: pSTAT6 IC50, compound 3 hrs, then 1 ng/mL IL-4 for 10 min, pY641-STAT6
[6] = compound 3 hrs, then 1 ng/mL IL-4 for 10 min, pY641-STAT6, read-out: pSTAT6 IC50

T3 sequence (P40763 127-722 limits assumed): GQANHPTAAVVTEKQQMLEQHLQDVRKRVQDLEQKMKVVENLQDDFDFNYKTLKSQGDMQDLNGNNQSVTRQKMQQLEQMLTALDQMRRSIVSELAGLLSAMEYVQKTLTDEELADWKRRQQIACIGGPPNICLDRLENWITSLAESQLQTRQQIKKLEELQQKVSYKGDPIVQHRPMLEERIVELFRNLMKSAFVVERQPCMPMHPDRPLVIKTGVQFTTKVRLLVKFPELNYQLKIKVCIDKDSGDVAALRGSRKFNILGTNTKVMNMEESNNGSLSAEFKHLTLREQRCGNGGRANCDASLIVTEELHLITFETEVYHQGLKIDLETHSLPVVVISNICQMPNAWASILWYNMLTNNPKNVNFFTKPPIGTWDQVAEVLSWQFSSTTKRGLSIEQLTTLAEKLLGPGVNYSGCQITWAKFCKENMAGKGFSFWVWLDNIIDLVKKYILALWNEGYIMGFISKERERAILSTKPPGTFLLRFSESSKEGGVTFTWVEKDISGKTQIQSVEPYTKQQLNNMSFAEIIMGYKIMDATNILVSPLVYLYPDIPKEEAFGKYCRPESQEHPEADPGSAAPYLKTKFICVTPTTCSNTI
T1 sequence (P40763 whole entry): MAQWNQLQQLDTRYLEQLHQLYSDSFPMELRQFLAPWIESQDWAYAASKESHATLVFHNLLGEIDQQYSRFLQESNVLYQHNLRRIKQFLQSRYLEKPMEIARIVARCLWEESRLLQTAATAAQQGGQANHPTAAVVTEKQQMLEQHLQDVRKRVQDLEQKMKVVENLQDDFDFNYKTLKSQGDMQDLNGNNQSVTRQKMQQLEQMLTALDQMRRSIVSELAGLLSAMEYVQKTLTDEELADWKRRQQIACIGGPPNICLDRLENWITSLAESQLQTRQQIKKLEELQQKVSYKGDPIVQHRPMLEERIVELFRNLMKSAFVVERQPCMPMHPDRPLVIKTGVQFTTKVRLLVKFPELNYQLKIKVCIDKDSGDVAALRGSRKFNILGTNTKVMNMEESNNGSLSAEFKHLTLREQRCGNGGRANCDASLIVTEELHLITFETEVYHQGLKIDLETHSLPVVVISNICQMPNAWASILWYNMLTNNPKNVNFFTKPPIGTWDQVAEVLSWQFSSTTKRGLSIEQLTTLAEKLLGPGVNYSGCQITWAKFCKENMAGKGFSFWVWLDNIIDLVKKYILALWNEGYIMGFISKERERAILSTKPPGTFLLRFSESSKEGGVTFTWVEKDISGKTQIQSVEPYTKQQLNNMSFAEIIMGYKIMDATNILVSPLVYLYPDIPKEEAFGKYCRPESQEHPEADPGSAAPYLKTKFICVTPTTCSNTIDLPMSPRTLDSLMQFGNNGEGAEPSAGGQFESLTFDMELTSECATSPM

Row | IC50 [3] | IC50 [4] | IC50 [2, 6] | Compound | IC50 [1] | IC50 [2, 5]
1 |  |  |  | CN(C(=O)[C@@H]1CC[C@@H]2CCN(C(=O)CCCCCC#Cc3cccc4c3CN(C3CCC(=O)NC3=O)C4=O)C[C@H](NC(=O)c3cc4cc(C(F)(F)P(=O)(OCOC(=O)C(C)(C)C)OCOC(=O)C(C)(C)C)ccc4[nH]3)C(=O)N21)c1ccccc1 (stereo partly drawn) [Compound 2, ((((2-(((5S,8S,10aR)-3-(8-(2-(2,6-Dioxopiperidin-3-yl)-1-oxoisoindolin-4-yl)oct-7-ynoyl)-8-(methyl(phenyl)carbamoyl)-6-oxodecahydropyrrolo[1,2-a][1,5]diazocin-5-yl)carbamoyl)-1H-indol-5-yl)difluoromethyl)phosphoryl)bis(oxy))bis(methylene) bis(2,2-dimethylpropanoate)] | 1 to 3 µM | 1 to 3 µM
2 |  |  |  | CC(=O)N1CC[C@H]2CC[C@@H](C(=O)Nc3ccc(-c4ccc(NC(=O)CCCCCC#Cc5cccc6c5CN(C5CCC(=O)NC5=O)C6=O)cc4)cc3)N2C(=O)[C@@H](NC(=O)c2cc3cc(C(F)(F)P(=O)(OCOC(=O)C(C)(C)C)OCOC(=O)C(C)(C)C)ccc3[nH]2)C1 (stereo partly drawn) [Compound 4, ((((2-(((5S,8S,10aR)-3-acetyl-8-((4′-(8-(2-(2,6-dioxopiperidin-3-yl)-1-oxoisoindolin-4-yl)oct-7-ynamido)-[1,1′-biphenyl]-4-yl)carbamoyl)-6-oxodecahydropyrrolo[1,2-a][1,5]diazocin-5-yl)carbamoyl)-1H-indol-5-yl)difluoromethyl)phosphoryl)bis(oxy))bis(methylene) bis(2,2-dimethylpropanoate)] | 1 to 3 µM | > 3 µM
3 | 1 to 10 µM | < 0.3 µM | > 3 µM | Cc1ccc2onc(C(=O)N3CC[C@H]4CC[C@@H](C(=O)N5CCN(c6cccc7c6[nH]c(=O)n7C6CCC(=O)NC6=O)CC5)N4C(=O)[C@@H](NC(=O)c4ccc5ccc(C(F)(F)P(=O)(O)O)cc5c4)C3)c2c1 (stereo partly drawn) [Compound 36, ((7-(((5S,8S,10aR)-8-(4-(1-(2,6-dioxopiperidin-3-yl)-2-oxo-2,3-dihydro-1H-benzo[d]imidazol-4-yl)piperazine-1-carbonyl)-3-(5-methylbenzo[d]isoxazole-3-carbonyl)-6-oxodecahydropyrrolo[1,2-a][1,5]diazocin-5-yl)carbamoyl)naphthalen-2-yl)difluoromethyl)phosphonic acid] |  | 
4 | > 10 µM | < 0.3 µM | > 3 µM | Cc1ccc2onc(C(=O)N3CC[C@H]4CC[C@@H](C(=O)N5CCN(c6ccc7[nH]c(=O)n(C8CCC(=O)NC8=O)c7c6)CC5)N4C(=O)[C@@H](NC(=O)c4ccc5ccc(C(F)(F)P(=O)(O)O)cc5c4)C3)c2c1 (stereo partly drawn) [Compound 37, ((7-(((5S,8S,10aR)-8-(4-(3-(2,6-dioxopiperidin-3-yl)-2-oxo-2,3-dihydro-1H-benzo[d]imidazol-5-yl)piperazine-1-carbonyl)-3-(5-methylbenzo[d]isoxazole-3-carbonyl)-6-oxodecahydropyrrolo[1,2-a][1,5]diazocin-5-yl)carbamoyl)naphthalen-2-yl)difluoromethyl)phosphonic acid] |  | 
5 |  |  |  | CCCC(=O)SCCOP(=O)(OCCSC(=O)CCC)C(F)(F)c1ccc2sc(C(=O)N[C@H]3CN(C(=O)CCCCCC#Cc4cccc5c4CN(C4CCC(=O)NC4=O)C5=O)CC[C@H]4CC[C@@H](C(=O)N5CC(c6cnccc6N(C)C)C5)N4C3=O)cc2c1 (stereo partly drawn) [Compound 38, S,S′-(((((2-(((5S,8S,10aR)-8-(3-(4-(dimethylamino)pyridin-3-yl)azetidine-1-carbonyl)-3-(8-(2-(2,6-dioxopiperidin-3-yl)-1-oxoisoindolin-4-yl)oct-7-ynoyl)-6-oxodecahydropyrrolo[1,2-a][1,5]diazocin-5-yl)carbamoyl)benzo[b]thiophen-5-yl)difluoromethyl)phosphoryl)bis(oxy))bis(ethane-2,1-diyl)) dibutanethioate] | < 0.1 µM | 
6 | > 10 µM | < 0.3 µM | > 3 µM | Cc1ccc2onc(C(=O)N3CC[C@H]4CC[C@@H](C(=O)N(C)CCCCCCC#Cc5cccc6c5CN(C5CCC(=O)NC5=O)C6=O)N4C(=O)[C@@H](NC(=O)c4ccc5ccc(C(F)P(=O)(O)O)cc5c4)C3)c2c1 (stereo partly drawn) [Compound 40, ((7-(((5S,8S,10aR)-8-((8-(2-(2,6-dioxopiperidin-3-yl)-1-oxoisoindolin-4-yl)oct-7-yn-1-yl)(methyl)carbamoyl)-3-(5-methylbenzo[d]isoxazole-3-carbonyl)-6-oxodecahydropyrrolo[1,2-a][1,5]diazocin-5-yl)carbamoyl)naphthalen-2-yl)fluoromethyl)phosphonic acid] |  | 

— US20260308186A1, “STAT DEGRADERS AND USES THEREOF” (Recludix Pharma, Inc., priority 2023, published 2026)
